Measurements taken from patent US8846736B2, “Pyrrole inhibitors of S-nitrosoglutathione reductase as therapeutic agents” (N30 Pharmaceuticals, Inc., priority 2008, dated 2014).

Target: T1, GSNOR (GSNO Reductase) (Homo sapiens, UniProt P11766)
T1 construct: made in house; host or cells: E. coli (arabinose-induced)
Assay: GSNOR assay (in vitro inhibition of GSNOR activity, change in 340 nm absorbance)
Format: biochemical
Conditions: GSNOR inhibitor activity by the assay of Example 2; 0.240 mM GSNO, 0.300 mM NADH, pH 7.4, 25° C.; values given as 'about' bounds
Protocol: Various compounds were tested in vitro for their ability to inhibit GSNOR activity. Representative compounds and their corresponding GSNOR activity are described in a paragraph before Table 1 above. GSNOR expression and purification is described in Biochemistry 2000, 39, 10720-10729.
Pre-cultures were grown from stabs of a GSNOR glycerol stock in 2XYT media containing 100 ug/ml ampicillin after an overnight incubation at 37° C. Cells were then added to fresh 2XYT (4 L) containing ampicillin and grown to an OD (A600) of 0.6-0.9 at 37° C. before induction. GSNOR expression was induced with 0.1% arabinose in an overnight incubation at 20° C.
E. coli cell paste was lysed by nitrogen cavitation and the clarified lysate purified by Ni affinity chromatography on an AKTA FPLC (Amersham Pharmacia). The column was eluted in 20 mM Tris pH 8.0/250 mM NaCl with a 0-500 mM imidazole gradient. […] GSNOR was recovered in the flowthrough fraction and for crystallography is further purified by Q-Sepharose and Heparin flowthrough chromatography in 20 mM Tris pH 8.0, 1 mM DTT, 10 uM ZnSO4.
GSNO and Enzyme/NADH Solutions are made up fresh each day. The Solutions are filtered and allowed to warm to room temperature. GSNO Solution: 100 mM NaPO4 (pH 7.4), 0.480 mM GSNO. 396 μL of GSNO Solution is added to a cuvette followed by 8 μL of test compound in DMSO (or DMSO only for full reaction control) and mixed with the pipette tip. Compounds to be tested are made up at a stock concentration of 10 mM in 100% DMSO. 2 fold serial dilutions are done in 100% DMSO. 8 μL of each dilution are added to an assay so that the final concentration of DMSO in the assay is 1%. The concentrations of compounds tested range from 100 to 0.003 μM. Enzyme/NADH Solution: 100 mM NaPO4 (pH 7.4), 0.600 mM NADH, 1.0 μg/mL GSNO Reductase. 396 μL of the Enzyme/NADH Solution is added to the cuvette to start the reaction. The cuvette is placed in the Cary 3E UV/Visible Spectrophotometer and the change in 340 nm absorbance/min at 25° C. is recorded for 3 minutes. The assays are done in triplicate for each compound concentration. IC50's for each compound are calculated using the standard curve analysis in the Enzyme Kinetics Module of SigmaPlot.
Final assay conditions: 100 mM NaPO4, pH 7.4, 0.240 mM GSNO, 0.300 mM NADH, 0.5 μg/mL GSNO Reductase and 1% DMSO. Final volume: 800 μL/cuvette.

T1 sequence (P11766 whole entry): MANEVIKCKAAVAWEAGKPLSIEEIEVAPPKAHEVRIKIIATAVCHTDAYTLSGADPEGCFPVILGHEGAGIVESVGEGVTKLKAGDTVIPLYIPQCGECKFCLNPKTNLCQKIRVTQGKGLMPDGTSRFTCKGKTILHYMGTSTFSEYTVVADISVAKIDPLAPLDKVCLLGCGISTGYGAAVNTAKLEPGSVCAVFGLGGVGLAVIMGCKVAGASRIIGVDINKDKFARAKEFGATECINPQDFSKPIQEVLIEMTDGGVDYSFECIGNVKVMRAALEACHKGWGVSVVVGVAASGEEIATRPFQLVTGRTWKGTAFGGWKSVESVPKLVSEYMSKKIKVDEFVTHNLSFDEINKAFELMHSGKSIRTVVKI

Compound	IC50 [nM]
COc1ccc(-c2ccc(Cc3nnn[nH]3)n2-c2ccc(C(N)=O)cc2C)cc1 [Compound 10, 4-(2-((1H-tetrazol-5-yl)methyl)-5-(4-methoxyphenyl)-1H-pyrrol-1-yl)-3-methylbenzamide]	< 5000
Cc1cc(C(N)=O)ccc1-n1c(Cc2nnn[nH]2)ccc1-c1ccc(-n2ccnc2C)s1 [Compound 19, 4-(2-((1H-tetrazol-5-yl)methyl)-5-(5-(2-methyl-1H-imidazol-1-yl)thiophen-2-yl)-1H-pyrrol-1-yl)-3-methylbenzamide]	< 1000
COc1cc(Br)ccc1-c1ccc(CCc2nnn[nH]2)n1-c1ccc(C(N)=O)cc1C [Compound 17, 4-(2-(2-(1H-tetrazol-5-yl)ethyl)-5-(4-bromo-2-methoxy-phenyl)-1H-pyrrol-1-yl)-3-methylbenzamide]	< 1000
COc1ccc(-c2ccc(CCc3nnn[nH]3)n2-c2ccc(O)cc2)cc1 [Compound 13, 4-(2-(2-(1H-tetrazol-5-yl)ethyl)-5-(4-methoxyphenyl)-1H-pyrrol-1-yl)phenol]	< 5000
Cc1cc(C(N)=O)ccc1-n1c(CCc2nnn[nH]2)ccc1-c1ccc(Br)cc1 [Compound 11, 4-(2-(2-(1H-tetrazol-5-yl)ethyl)-5-(4-bromophenyl)-1H-pyrrol-1-yl)-3-methylbenzamide]	< 1000
COc1ccc(-c2ccn(CCc3nnn[nH]3)c2-c2ccc(C(N)=O)cc2C)cc1 [Compound 23, 4-(1-(2-(1H-tetrazol-5-yl)ethyl)-3-(4-methoxy-phenyl)-1H-pyrrol-2-yl)-3-methylbenzamide]	< 5000
Cc1nccn1-c1ccc(-c2ccc(Cc3nnn[nH]3)n2-c2ccc(O)cc2)s1 [Compound 20, 4-(2-((1H-tetrazol-5-yl)methyl)-5-(5-(2-methyl-1H-imidazol-1-yl)thiophen-2-yl)-1H-pyrrol-1-yl)phenol]	< 1000
Cc1cc(C(N)=O)ccc1-n1c(Cc2nnn[nH]2)ccc1-c1ccc(Br)cc1 [Compound 9, 4-(2-((1H-tetrazol-5-yl)methyl)-5-(4-bromophenyl)-1H-pyrrol-1-yl)-3-methylbenzamide]	< 1000
Cc1cc(NS(C)(=O)=O)ccc1-n1c(Cc2nn[nH]n2)ccc1-c1ccc(-n2ccnc2C)s1 [Compound 22, N-(4-(2-((1H-tetrazol-5-yl)methyl)-5-(5-(2-methyl-1H-imidazol-1-yl)-thiophen-2-yl)-1H-pyrrol-1-yl)-3-methylphenyl)-methanesulfonamide]	< 1000
COc1cc(Br)ccc1-c1ccc(CCc2nnn[nH]2)n1-c1ccc(O)cc1 [Compound 15, 4-(2-(2-(1H-tetrazol-5-yl)ethyl)-5-(4-bromo-2-methoxyphenyl)-1H-pyrrol-1-yl)phenol]	< 1000
Cc1cc(C(N)=O)ccc1-n1c(Cc2nnn[nH]2)ccc1-c1ccc(-n2ccnc2C)cc1 [Compound 21, 4-(2-((1H-tetrazol-5-yl)methyl)-5-(4-(2-methyl-1H-imidazol-1-yl)phenyl)-1H-pyrrol-1-yl)-3-methylbenzamide]	< 1000
Oc1ccc(-n2c(CCc3nnn[nH]3)ccc2-c2ccc(-n3ccnc3)cc2)cc1 [Compound 8, 4-(2-(4-(1H-imidazol-1-yl)phenyl)-5-(2-(1H-tetrazol-5-yl)ethyl)-1H-pyrrol-1-yl)phenol]	< 1000
COc1cc(Cl)ccc1-c1ccc(CCc2nnn[nH]2)n1-c1ccc(O)cc1 [Compound 14, 4-(2-(2-(1H-tetrazol-5-yl)ethyl)-5-(4-chloro-2-methoxyphenyl)-1H-pyrrol-1-yl)phenol]	< 1000
Cc1nccn1-c1ccc(-c2ccc(Cc3nnn[nH]3)n2-c2ccc(O)cc2)cc1 [Compound 18, 4-(2-((1H-tetrazol-5-yl)methyl)-5-(4-(2-methyl-1H-imidazol-1-yl)phenyl)-1H-pyrrol-1-yl)phenol]	< 1000
Oc1ccc(-n2c(CCc3nnn[nH]3)ccc2-c2ccc(Br)cc2)cc1 [Compound 5, 4-(2-(2-(1H-tetrazol-5-yl)ethyl)-5-(4-bromophenyl)-1H-pyrrol-1-yl)phenol]	< 1000
COc1ccc(-c2ccc(CCc3nnn[nH]3)n2-c2ccc(C(N)=O)cc2C)cc1 [Compound 4, 4-(2-(2-(1H-tetrazol-5-yl)ethyl)-5-(4-methoxyphenyl)-1H-pyrrol-1-yl)-3-methylbenzamide]	< 5000
COc1cc(Cl)ccc1-c1ccc(CCc2nnn[nH]2)n1-c1ccc(C(N)=O)cc1C [Compound 16, 4-(2-(2-(1H-tetrazol-5-yl)ethyl)-5-(4-chloro-2-methoxy-phenyl)-1H-pyrrol-1-yl)-3-methylbenzamide]	< 1000
Oc1ccc(-n2c(Cc3nnn[nH]3)ccc2-c2ccc(-n3ccnc3)cc2)cc1 [Compound 12, 4-(2-(4-(1H-imidazol-1-yl)phenyl)-5-((1H-tetrazol-5-yl)methyl)-1H-pyrrol-1-yl)phenol]	< 1000
Oc1ccc(-n2c(Cc3nnn[nH]3)ccc2-c2ccc(Br)cc2)cc1 [Compound 6, 4-(2-((1H-tetrazol-5-yl)methyl)-5-(4-bromophenyl)-1H-pyrrol-1-yl)phenol]	< 5000
NC(=O)c1ccc(-n2c(CCc3nnn[nH]3)ccc2-c2ccccc2)cc1 [Compound 1, 4-(2-(2-(1H-tetrazol-5-yl)ethyl)-5-phenyl-1H-pyrrol-1-yl)benzamide]	< 1000
